Measurements as given in patent publication US20050233904A1, “Herbicide-safener combination” (Bayer CropScience GmbH, priority 2004, published 2005).

Key:
Assay type in all cases: in vivo
[1] = system: harmful plants such as Sinapis alba, Chrysanthemum segetum, Avena sativa, Stellaria media, Echinochloa crus-galli, Lolium multiflorum, Setaria viridis …; experiment: Pre-emergence action against weeds (greenhouse pot test, optical scoring vs untreated controls); conditions: herbicide-safener combination with the safeners dymron (b-14), fenclorim (b-11), cumyluron (b-4), isoxadifen-ethyl (II-9), mefenpyr-diethyl (II-1), cloquintocet-mexyl (III-1), S3-1, h-1, h-2, h-3, dietholate (b-7), disulfoton (b-5), 1,8-naphthalic anhydride (b-1), fluxofenim (b-10), dichlormid (IV-1), benoxacor (IV-2), flurazole (b-12), R-29148 (IV-4); application rate of 100 g or less of herbicid
From the text: (§1) Seeds or rhizome pieces of monocotyledonous and dicotyledonous weed plants were placed in sandy loam soil in cardboard pots and covered with soil. The active compounds (A) and (B), formulated in the form of wettable powders or emulsion concentrates, were then applied to the surface of the covering soil in various dosages as an aqueous suspension or emulsion using a water application rate of 600 to 800 I/ha (converted).
After the treatment, the pots were placed in a greenhouse and kept under good growth conditions for the weeds. Optical scoring of the damage to the plants or emerged plants was carried out after emergence of the test plants after a trial period of 3 to 4 weeks, in comparison to untreated controls. As shown by the results, the tested herbicide-safener combinations have good herbicidal pre-emergence activity against a broad spectrum of weed grasses and broad-leaved weeds.

[2] = system: crop plants such as cotton, oil seed rape, sugar beet and Gramineae crops such as barley, wheat, rye, millet, corn or rice; conditions: herbicide-safener combination with the safeners dymron (b-14), fenclorim (b-11), cumyluron (b-4), isoxadifen-ethyl (II-9), mefenpyr-diethyl (II-1), cloquintocet-mexyl (III-1), S3-1, h-1, h-2, h-3, dietholate (b-7), disulfoton (b-5), 1,8-naphthalic anhydride (b-1), fluxofenim (b-10), dichlormid (IV-1), benoxacor (IV-2), flurazole (b-12), R-29148 (IV-4); pre-emergence or post-emergence method; score
From the text: as §1
(§2) Seeds or rhizome pieces of monocotyledonous and dicotyledonous weeds were placed into sandy loam soil in plastic pots, covered with soil and grown in a greenhouse under good growth conditions. Three weeks after sowing, the test plants were treated at the three-leaf stage. The compounds according to the invention, formulated as wettable powders or as emulsion concentrates, were sprayed onto the green parts of the plants at various dosages using a water application rate of 600 to 800 I/ha (converted). The test plants were stood in the greenhouse under optimum growth conditions for about three to four weeks, and the action of the preparations was then scored visually in comparison to untreated controls. Post-emergence, too, the herbicide-safener combinations according to the invention have good herbicidal activity against a broad spectrum of economically important weed grasses and broad-leaved weeds.
In further greenhouse trials, seeds of a relatively large number of crop plants and weeds were placed into sandy loam soil and covered with soil. Some of the pots were immediately treated as described in Section 1, the others were placed in a greenhouse until the plants had developed two to three true leaves and were then sprayed with various dosages of the herbicide-safener combinations according to the invention, as described in Section 2.

[3] = system: harmful plants such as Sinapis alba, Echinochloa crus-galli, Lolium multiflorum, Chrysanthemum segetum, Setaria viridis, Abutilon theophrasti, Amaranthus …; experiment: Post-emergence action against weeds (greenhouse pot test, visual scoring vs untreated controls); conditions: herbicide-safener combination with the safeners dymron (b-14), fenclorim (b-11), cumyluron (b-4), isoxadifen-ethyl (II-9), mefenpyr-diethyl (II-1), cloquintocet-mexyl (III-1), S3-1, h-1, h-2, h-3, dietholate (b-7), disulfoton (b-5), 1,8-naphthalic anhydride (b-1), fluxofenim (b-10), dichlormid (IV-1), benoxacor (IV-2), flurazole (b-12), R-29148 (IV-4); treated at three-leaf stage; application rate
Experimental: as §2

SMILES	herbicidal activity against harmful plants, pre-emergence method [1]	damage to crop plants [2]	herbicidal activity against harmful plants, post-emergence method [3]
CCOc1cc(OC)nc(NC(=O)NS(=O)(=O)c2ncccc2C2=NOCCO2)n1 [Compound I-1]	very good herbicidal activity	did not cause any damage	very good herbicidal activity
COc1cc(C)nc(NC(=O)[N-]S(=O)(=O)c2ncccc2C2=NOCCO2)n1.[Na+] [Compound I-3]	very good herbicidal activity	did not cause any damage	very good herbicidal activity
COc1cc(N(C)C)nc(NC(=O)NS(=O)(=O)c2ncccc2C2=NOCCO2)n1 [Compound I-8]	very good herbicidal activity	did not cause any damage	very good herbicidal activity
COc1cc(Cl)nc(NC(=O)NS(=O)(=O)c2ncccc2C2=NOCCO2)n1 [Compound I-9]	very good herbicidal activity	did not cause any damage	very good herbicidal activity
COc1cc(Cl)nc(NC(=O)[N-]S(=O)(=O)c2ncccc2C2=NOCCO2)n1.[Na+] [Compound I-10]	very good herbicidal activity	did not cause any damage	very good herbicidal activity
COc1cc(OC)nc(NC(=O)NS(=O)(=O)c2ncccc2C2=NOCCO2)n1 [Compound I-11]	very good herbicidal activity	did not cause any damage	very good herbicidal activity
COc1cc(OC)nc(NC(=O)[N-]S(=O)(=O)c2ncccc2C2=NOCCO2)n1.[Na+] [Compound I-12]	very good herbicidal activity	did not cause any damage	very good herbicidal activity
CCOc1cc(OCC)nc(NC(=O)[N-]S(=O)(=O)c2ncccc2C2=NOCCO2)n1.[Na+] [Compound I-14]	very good herbicidal activity	did not cause any damage	very good herbicidal activity
CCOc1cc(Cl)nc(NC(=O)NS(=O)(=O)c2ncccc2C2=NOCCO2)n1 [Compound I-21]	very good herbicidal activity	did not cause any damage	very good herbicidal activity
CCOc1cc(Cl)nc(NC(=O)[N-]S(=O)(=O)c2ncccc2C2=NOCCO2)n1.[Na+] [Compound I-22]	very good herbicidal activity	did not cause any damage	very good herbicidal activity
Cc1cc(C)nc(NC(=O)NS(=O)(=O)c2ncccc2C2=NOCCO2)n1 [Compound I-23]	very good herbicidal activity	did not cause any damage	very good herbicidal activity
Cc1cc(Cl)nc(NC(=O)NS(=O)(=O)c2ncccc2C2=NOCCO2)n1 [Compound I-29]	very good herbicidal activity	did not cause any damage	very good herbicidal activity
Cc1cc(Cl)nc(NC(=O)[N-]S(=O)(=O)c2ncccc2C2=NOCCO2)n1.[Na+] [Compound I-30]	very good herbicidal activity	did not cause any damage	very good herbicidal activity
COc1nc(NC(=O)NS(=O)(=O)c2ncccc2C2=NOCCO2)nc(OC)n1 [Compound I-51]	very good herbicidal activity	did not cause any damage	very good herbicidal activity
COc1nc(NC(=O)[N-]S(=O)(=O)c2ncccc2C2=NOCCO2)nc(OC)n1.[Na+] [Compound I-52]	very good herbicidal activity	did not cause any damage	very good herbicidal activity
COc1nc(NC(=O)[N-]S(=O)(=O)c2ncccc2C2=NOCCO2)nc(N(C)C)n1.[Na+] [Compound I-60]	very good herbicidal activity	did not cause any damage	very good herbicidal activity
CCOc1nc(Cl)nc(NC(=O)[N-]S(=O)(=O)c2ncccc2C2=NOCCO2)n1.[Na+] [Compound I-70]	very good herbicidal activity	did not cause any damage	very good herbicidal activity
CN(C)c1nc(NC(=O)NS(=O)(=O)c2ncccc2C2=NOCCO2)nc(OCC(F)(F)F)n1 [Compound I-142]	very good herbicidal activity	did not cause any damage	very good herbicidal activity
O=C(Nc1nc(Cl)cc(OCC(F)(F)F)n1)NS(=O)(=O)c1ncccc1C1=NOCCO1 [Compound I-143]	very good herbicidal activity	did not cause any damage	very good herbicidal activity
O=C([N-]S(=O)(=O)c1ncccc1C1=NOCCO1)Nc1nc(Cl)cc(OCC(F)(F)F)n1.[Na+] [Compound I-145]	very good herbicidal activity	did not cause any damage	very good herbicidal activity
